Test results taken from patent US7863251B2, “Hepatic stellate cell specific promoter and uses thereof” (Agency for Science, Technology and Research, priority 2005, dated 2011).

Legend:
[1] = test system: T6/lacZ/C1 cells (2.2 kb hGFAP-lacZ transgene); assay: Quantitative solution assay of β-galactosidase activity in T6/lacZ/C1 cell extracts; format: cell-based, rat
Description: To quantify the β-galactosidase activity in cell extracts reported in FIGS. 4 to 10, an enzyme assay kit (E2000, Promega, Wis., USA) was used to measure the specific activity of β-galactosidase, according to the manufacturer's instructions in a 96-well format. Briefly, the cells were washed twice with 1×PBS buffer (pH7.4), lysed for 15 minutes at room temperature with the reporter lysis buffer, and harvested using a cell scraper. The total cell extracts were appropriately diluted (5-10 fold), and assayed for the enzyme activity. The specific β-galactosidase activity was expressed in milliunit per milliliter (mU/ml) using a standard curve established from the β-galactosidase standard (provided with the kit). The protein concentration was measured with a BCA protein assay kit (Pierce, Ill., USA), and used to further convert the specific β-galactosidase activity from mU/ml to mU/μg total cellular protein. Six independent experiments were performed for each time and concentration data point.
(§1) Cells were seeded into 12-well plates in full DMEM and 500 μg/ml Zeocin. Twelve hours prior to the cytokine treatment, medium was changed so that the cells were allowed to grow in low serum (0.5% FBS) DMEM. The cells at a confluence of 70-80% were incubated with various concentrations (0, 0.1, 1 and 10 […]) of recombinant human TGF-β1, PDGF-BB (BioVision, CA, USA) and 0, 0.1, 1 and 10 μg/ml lipopolysaccharide (LPS E. coli, Sigma) respectively for 0, 2, 8, 16, 24, 48 and 72 hours before they were harvested for β-galactosidase activity assay and real-time RT-PCR GFAP assay.
A β-galactosidase activity assay kit (Promega, Wis., USA) was used to measure transgene expression level in the T6/lacZ/C1 clone, using the nontransfected T6 as a negative basal control. When grown in the full DMEM medium to 70-80% confluence, the T6/lacZ/C1 cells yielded an average reading of approximately 0.5 mU/μg, about five times of that in normal T6 cells. The basal reading in the T6 cells was not influenced by the addition of cytokines or LPS (data not shown). For comparison purpose, the β-galactosidase activity in a randomly selected C6 clone containing the 2.2 kb hGFAP-lacZ transgene (designated as C6/lacZ/C4) was measured to have an activity of about 2 mU/μg, […] of that in the T6/lacZ/C1 cells. When incubated with TGF-β1 (0 to 10 ng/ml), the C6/lacZ/C4 cells yielded an induction dynamics of 130 to 200% of the untreated control.
To quantify specific transgene response to TGF-β1, we first set up an experiment to assess possible effects that serum concentration and culture duration may have on the transgene expression. T6/lacZ/C1 cells were initially grown in DMEM with high serum (10% FBS), and then some of the cells were starved with a DMEM with low serum (0.5% FBS) for 12 hours prior to the addition of TGF-β1 (1 ng/ml). After incubation for various times (0, 2, 8, 24, 48 and 72 hours), cells were harvested for β-galactosidase activity assay. […] After 72 hours, the level slipped to 58% of the value at 0 hour (P<0.001). The assay results were depicted in FIG. 8.
To further dissect the TGF-β1 contribution to the transgene induction, we treated T6/lacZ/C1 cells grown in low serum with various concentrations of TGF-β1 (0, 0.1, 1, 10 ng/ml) and assayed the enzymatic activity for three time points (24, 48 and 72 hours). The assay results were plotted in FIG. 9. […] When the non-treatment groups were normalized to 1 and the magnitude of induction were plotted for the 10 ng/ml treatment groups at all three time points (FIG. 10), a trend of increasing induction with time was apparent.

[2] = test system: T6/lacZ/C1 cells (2.2 kb hGFAP-lacZ transgene); assay: X-gal staining of T6/lacZ/C1 cells treated with TGF-β1, PDGF-BB and LPS; format: cell-based, rat; conditions: for X-gal blue staining (β-galactosidase) compared to the untreated: 0.1 to 10 ng/ml, 72 hours, X-gal one hour; for expression of a transgene operably coupled to a hGFAP promoter in HSC cell culture: summary statement
Description: A lacZ reporter assay kit for cell staining (InvivoGen, CA, USA) was used to detect the reporter gene activity in both stable and transient transfectants. Development of the blue end product was monitored at different time intervals (15, 30, 60, 90, and 120 minutes). The staining results were documented with a digital camera (DP12) attached to an Olympus inverted bright field microscope (IX51).
as §1
To determine possible induction of GFAP-lacZ expression by molecules with profibrotic and proinflammatory properties in activated HSC the T6/lacZ/C1 cells were treated with TGF-β1, PDGF-BB and LPS respectively at various concentrations (0, 0.1, 1 and 10 ng/ml) in the full DMEM medium for 72 hours. The cells were then stained with X-gal for one hour and photographed. […] In order to obtain truly quantitative data, a solution assay was employed to measure possible up-regulation of β-galactosidase activity by TGF-β1 in experiments below.

[3] = test system: endogenous GFAP mRNA in T6/lacZ/C1 cells; assay: Real-time RT-PCR for endogenous rat GFAP mRNA in T6/lacZ/C1 cells; format: cell-based; conditions: TGF-β1 1 ng/ml
Description: Total RNA was reverse transcribed to cDNA using Taqman's reverse transcription reagent (Cat. # N808-0234A total of […] of RNA in 7.7 μl nuclease-free water was added to 2 μl 10× reverse transcriptase buffer, 4.4 μl 25 mM magnesium chloride, 4 μl deoxyNTP mixtures, 1 μl random hexamers, 0.4 μl RNase inhibitor and 0.5 μl reverse transcriptase (50 U/μl) in a final reaction volume of 20 μl. The reaction was performed for 10 min at 25° C. (annealing), 30 min at 48° C. (cDNA synthesis) and 5 min at 95° C. (enzyme denaturation).
Real-time quantitative PCR was carried out with an ABI 7500 Real Time PCR System (Applied Biosystems, CA, USA). One microliter of sample cDNA was used in each PCR reaction, with the housekeeping β-actin gene as a reference for normalization. The primers and probes for rat β-actin and GFAP were purchased from Taqman's assay-on-demand database. The PCR reaction was performed under a default profile consisting of 50° C. for 2 min (UNG activation), 95° C. for 10 min (enzyme denaturation) and 40 cycles of amplification (denaturation 15 seconds, annealing and extension 60 seconds).
Relative quantitation of the target mRNA was calculated using the comparative threshold cycle (CT) methods as described in the User Bulletin #2 (ABI Prism 7700 Sequence Detection System). CT indicates the fractional cycle number at which the amount of amplified target reaches a fixed threshold within the linear phase of gene amplification. ΔCT, which reflects the difference between CT target and CT β-actin, is inversely correlated to the abundance of mRNA transcripts in the samples. ΔCT for each sample was normalized against control experiment or calibrator and expressed as ΔΔCT. Relative quantitation is given by 2^−ΔΔCT to express the up-regulation or down-regulation of the target gene under the treatments compared to the control.
It was known that GFAP, along with desmin, SMAA, and vimentin, was expressed in the clonal T6 cells (Vogel et al. (2000), J Lipid Res. 41(6):882). Naturally, the endogenous GFAP should be expressed in the T6/lacZ/C1 cells as well. In order to investigate how the endogenous GFAP expression is regulated by TGF-β1 in the T6/lacZ/C1 cells during different time course, we quantified rat GFAP mRNA level using a real-time RT-PCR method. Cells were similarly grown and treated with TGF-β1 (1 ng/ml) for various times (0, 2, 8, 16, 24, 48 and 72 hours), as described for the enzymatic assay experiments above. Total RNA was isolated from different cells and quantified as described in Materials and Methods, and the results were depicted in FIG. 11.

Molecule: TGF-β1: recombinant human TGF-β1 (BioVision), pro-fibrotic factor
- induction of β-galactosidase activity vs non-induced ([1]; 1 ng/ml TGF-β1, low serum, 24 hours (P<0.05)): induction was seen
- absolute enzymatic activity (β-galactosidase) ([1]; 10 ng/ml TGF-β1, 72 hours): 0.43 mU/μg
- fold induction of β-galactosidase specific activity, non-treatment normalized to 1 ([1]; 10 ng/ml TGF-β1, 72 hours): nearly two fold
- induction of β-galactosidase activity vs non-induced ([1]; 10 ng/ml TGF-β1, low serum, 24, 48 and 72 hours (P<0.001)): Significant induction
- transgene expression level ([1]; TGF-β1 1 ng/ml, 0.5% FBS, 2 and 8 hours): rapidly elevated
- β-galactosidase specific activity at peak ([1]; TGF-β1 1 ng/ml, 0.5% FBS, 24 hour): 0.52 mU/μg
- transgene expression level ([1]; TGF-β1 1 ng/ml, 0.5% FBS, 48 hours): dropped to the same level as at 0 hour
- transgene expression level, % of the value at 0 hour ([1]; TGF-β1 1 ng/ml, 0.5% FBS, 72 hours): 58%
- X-gal blue staining (β-galactosidase) compared to the untreated [2]: more intense blue staining
- expression of a transgene operably coupled to a hGFAP promoter in HSC cell culture [2]: induced in a dose-dependent manner
- GFAP mRNA level relative to basal level (normalized to 1) at 0 hour ([3]; 16 hour (P<0.005)): 0.5 fold
- GFAP mRNA level relative to basal level (normalized to 1) at 0 hour ([3]; 48 hours): 7 fold
- GFAP mRNA level relative to basal level (normalized to 1) at 0 hour ([3]; 72 hours): 8.5 fold
- GFAP mRNA level relative to basal level at 0 hour ([3]; first 24 hours): remained steady

B1: PDGF-BB: recombinant human PDGF-BB (BioVision), pro-proliferative factor (protein, UniProt P01127 82-190, looked up)
Platelet-derived growth …: SLGSLTIAEPAMIAECKTRTEVFEISRRLIDRTNANFLVWPPCVEVQRCSGCCNNRNVQCRPTQVQLRPVQVRKIEIVRKKPIFKKATVTLEDHLACKCETVAAARPVT
- X-gal blue staining (β-galactosidase) compared to the untreated [2]: less pronounced response
- expression of a transgene operably coupled to a hGFAP promoter in HSC cell culture [2]: induced in a dose-dependent manner
